Test results from patent publication US20110076293A1, “TRIPTOLIDE DERIVATIVES FOR MODULATION OF APOPTOSIS AND IMMUNOSUPPRESSION” (priority 2002, published 2011).

Test system: IL-2 production in Jurkat human T lymphocyte cells
Experiment: IL-2 production assay for activity of compounds incubated with human serum
[1] = Table 7, Jurkat cells (48 hrs), 0.001 nM
[2] = Table 7, Jurkat cells (48 hrs), 0.01 nM
[3] = Table 7, Jurkat cells (48 hrs), 0.1 nM
[4] = Table 7, Jurkat cells (48 hrs), 1 nM
[5] = Table 7, Jurkat cells (48 hrs), 10 nM
[6] = Table 7, Jurkat cells (48 hrs), 100 nM
[7] = Table 7, Jurkat cells (48 hrs), 1000 nM
[8] = Table 7, Jurkat cells (48 hrs), 10000 nM
[9] = Table 8, Jurkat cells, 0.0001 nM
[10] = Table 8, Jurkat cells, 0.001 nM
[11] = Table 8, Jurkat cells, 10000 nM

SMILES | IL-2 pg/mL at given concentration (nM) [1] [pg/mL] | IL-2 pg/mL at given concentration (nM) [2] [pg/mL] | IL-2 pg/mL at given concentration (nM) [3] [pg/mL] | IL-2 pg/mL at given concentration (nM) [4] [pg/mL] | IL-2 pg/mL at given concentration (nM) [5] [pg/mL] | IL-2 pg/mL at given concentration (nM) [6] [pg/mL] | IL-2 pg/mL at given concentration (nM) [7] [pg/mL] | IL-2 pg/mL at given concentration (nM) [8] [pg/mL] | IL-2 pg/mL at given concentration (nM) [9] [pg/mL] | IL-2 pg/mL at given concentration (nM) [10] [pg/mL] | IL-2 pg/mL at given concentration (nM) (Table 8, Jurkat cells, 0.01 nM) [pg/mL] | IL-2 pg/mL at given concentration (nM) (Table 8, Jurkat cells, 0.1 nM) [pg/mL] | IL-2 pg/mL at given concentration (nM) (Table 8, Jurkat cells, 1 nM) [pg/mL] | IL-2 pg/mL at given concentration (nM) (Table 8, Jurkat cells, 10 nM) [pg/mL] | IL-2 pg/mL at given concentration (nM) (Table 8, Jurkat cells, 100 nM) [pg/mL] | IL-2 pg/mL at given concentration (nM) (Table 8, Jurkat cells, 1000 nM) [pg/mL] | IL-2 pg/mL at given concentration (nM) [11] [pg/mL] | other results
CC(C)[C@]12O[C@H]1[C@@H]1O[C@]13[C@]1(O[C@H]1C[C@H]1C4=C(CC[C@@]13C)C(=O)OC4)[C@@H]2O [PG490, Triptolide] | 929.7 | 908.6 | 937.8 | 835.2 | 556.1 | 120.7 | 62.9 | 59.2 | 80.0 | 97.2 | 83.2 | 87.1 | 75.7 | 25.5 | 17.8 | 12.9 | 22.3 | –
CC(C)[C@]12O[C@H]1[C@@H]1O[C@]13[C@]1(O[C@H]1C[C@H]1C4=C(CC[C@@]13C)C(=O)OC4)[C@@H]2OC(=O)CCC(=O)O [PG490-88, triptolide-14-succinate, reference compound] | 776.4 | 771.0 | 809.5 | 732.4 | 605.1 | 317.5 | 65.9 | 58.2 | 96.1 | 83.0 | 87.5 | 86.3 | 88.2 | 42.7 | 14.0 | 8.4 | 23.8 | IC50 (IL-2 production in Jurkat cells after incubation with pooled human serum for 48 hours at 37° C.): 9 nM; Conversion (%) (percent of the IC50 value produced by triptolide (PG490) in the same experiment, human serum 48 hours): 51%
CCNC(=O)O[C@@H]1[C@@]2(C(C)C)O[C@H]2[C@@H]2O[C@]23[C@]12O[C@H]2C[C@H]1C2=C(CC[C@@]13C)C(=O)OC2 [PG666, Triptolide 14-Ethyl Carbamate] | 844.6 | 799.8 | 860.6 | 773.0 | 819.1 | 528.0 | 180.1 | 63.5 | 94.3 | 105.1 | 97.0 | 92.8 | 80.0 | 89.8 | 33.3 | 10.0 | 8.0 | concentration for equal IL-2 inhibitory activity relative to the active concentration of PG490: 10-30 times; bioactivity in IL-2 inhibition assays (in words) (FIGS. 4-5): some level of bioactivity
